In PubChem BioAssay (NCI):
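These data come from cells grown in 96-well plates and exposed to compound for 48 hours at five concentrations. Here, GI50 denotes the concentration required for 50% inhibition of growth. TGI: total growth inhibition.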

What was measured:
Test in all cases: NCI anticancer screen, dose series, 48 h
NCI-H23 lung = tested on: NCI-H23 lung
OVCAR-8 ovarian = tested on: OVCAR-8 ovarian
SF-295 CNS = tested on: SF-295 CNS
UACC-62 melanoma = tested on: UACC-62 melanoma
A498 renal = tested on: A498 renal
BT-549 breast = tested on: BT-549 breast
UACC-257 melanoma = tested on: UACC-257 melanoma
RXF 393 renal = tested on: RXF 393 renal
MALME-3M melanoma = tested on: MALME-3M melanoma
SR leukemia = tested on: SR leukemia

| Structure (SMILES) | GI50 (NCI-H23 lung) [µM] | TGI (NCI-H23 lung) [µM] | GI50 (OVCAR-8 ovarian) [µM] | TGI (OVCAR-8 ovarian) [µM] | GI50 (SF-295 CNS) [µM] | TGI (SF-295 CNS) [µM] | GI50 (UACC-62 melanoma) [µM] | TGI (UACC-62 melanoma) [µM] | GI50 (A498 renal) [µM] | TGI (A498 renal) [µM] | GI50 (BT-549 breast) [µM] | TGI (BT-549 breast) [µM] | GI50 (UACC-257 melanoma) [µM] | TGI (UACC-257 melanoma) [µM] | GI50 (RXF 393 renal) [µM] | TGI (RXF 393 renal) [µM] | GI50 (MALME-3M melanoma) [µM] | TGI (MALME-3M melanoma) [µM] | GI50 (SR leukemia) [µM] | TGI (SR leukemia) [µM] |
| --- | --- | --- | --- | --- | --- | --- | --- | --- | --- | --- | --- | --- | --- | --- | --- | --- | --- | --- | --- | --- |
| CN(C)CCNc1c2c(c(NCCN(C)C)c3c(CO)c[nH]c13)C(=O)c1ccccc1C2=O | 2.31 | > 21.9 | 8.53 | > 39.4 | 3.39 | 17.8 | 7.64 | 21.7 | 18.1 | 34.7 | 8.23 | 23.5 | 9.85 | > 76.2 | 3.83 | 12.5 | 2.4 | 6.83 |  |  |
| Cc1cc(S(=O)(=O)Nc2nc3cc(-c4ccsc4)sc3c(=O)n2N)c(S)cc1Cl | > 100 | > 100 | 68.1 | > 100 | 29.7 | > 100 | 24.8 | 72.2 |  |  |  |  | > 100 | > 100 | > 100 | > 100 | > 100 | > 100 | > 100 | > 100 |
| Cc1ccc(SCC(O)=C2C(=O)CCCC2=O)cc1 |  | > 100 |  | > 100 |  | > 100 |  | > 100 |  |  |  |  |  | > 100 |  | > 100 |  | > 100 |  | > 100 |
| C(#Cc1ccccc1C#Cc1ccccn1)c1ccccn1 | 19 | 46.4 | 17.8 | 40.1 | 16.8 | 33.3 | 14.7 | 28.6 | 18 | 34.6 | 23.6 | 45.2 | 19.3 | 39.8 | 7.71 | 24.4 | 7.74 | 21 |  |  |
| O=C(O)Cc1cc(=O)[nH]c2c1C(=O)CCC2 |  | > 100 |  | > 100 |  | > 100 |  |  |  |  |  |  |  | > 100 |  | > 100 |  | > 100 |  | > 100 |
| C=C(C)[C@@H]1CC[C@]2(C)[C@H](CC=C3[C@@H]4[C@H](C)[C@@H](C)CC[C@]4(CO)CC[C@]32C)[C@@]1(C)CCCN | 1.34 | 4 | 1.16 | 2.8 | 0.847 | 1.58 | 5.82 | 12.6 | 3.83 | 11.2 | 2.56 | 9.23 | 1.04 | 2.21 | 0.826 | 1.59 | 0.734 | 1.42 |  |  |
| O=C(O)c1cc2c(c3ccsc13)-c1ccccc1CC2 | 30.1 | 79.5 | 40.7 | > 100 | 29.5 | > 100 | 33.9 | > 100 | 19.2 | 61.8 | 41.1 | > 100 | 53.4 | > 100 | 36.6 | > 100 | 18.8 | 59.6 |  |  |
| COc1cc2c3c(c1OC)Oc1ccc(cc1)CC1c4c(cc(OC)c(OC)c4Oc4ccc(cc4)CC3N(C)CC2)CCN1C (stereo not drawn) |  | > 100 |  | 60 |  | 36.1 |  | 34.9 |  | 34 |  |  |  | 28.6 |  | 40.3 |  | 34.5 |  | 7.24 |
| CC(=O)OCC(OC(C)=O)C(OC(C)=O)C(OC(C)=O)C(=O)CNn1c(-c2ccccc2Cl)nc2ccc(Br)cc2c1=O (stereo not drawn) |  | > 100 |  | > 100 |  | > 100 |  | > 100 |  | > 100 |  |  |  | > 100 |  | > 100 |  | > 100 |  | > 100 |
| C=C1C(=O)O[C@H]2[C@H]1CC/C(COC(=O)/C=C/c1c[nH]c3ccccc13)=C\CC[C@@]1(C)O[C@@H]21 | 1.25 | 4.32 | 0.191 | 0.421 | 1.62 | 3.14 | 0.177 | 0.379 | 0.278 | 1.13 | 0.175 | 0.384 | 0.354 | 1.46 | 0.172 | 0.331 | 0.283 | 0.828 |  |  |
| CCC(=O)OC1=CN2C(=NC(c3ccc(N)cc3)=CC2c2cc(OC)c(OC)c(OC)c2)S1 (stereo not drawn) | 5.82 | 35.6 | 3.39 | 22.3 | 3.48 | 13.1 | 3.03 | 11.8 | 5.3 | 20.8 | 4.57 | 19.4 | 5.96 | 19.9 | 2.3 | 7.98 | 4 | 16.3 |  |  |
| CC(=O)NS(=O)(=O)c1ccc(-n2nc(-c3ccccc3)cc2C2=CC(=O)C=CC2=O)cc1 | > 100 | > 100 | > 100 | > 100 | > 100 | > 100 | > 100 | > 100 |  |  | 48.9 | > 100 | > 100 | > 100 | > 100 | > 100 |  |  |  |  |
| CCCCCCCCCCCCCCC(O)C1CCC(C(O)CCC(O)CCCCCC(O)CC2=CC(C)OC2=O)O1 (stereo not drawn) |  | 12.1 |  | 14.8 |  | 10.3 |  | 13.3 |  | 20.5 |  |  |  | 2.94 |  |  |  | 13.6 |  |  |
| Cc1cc(Cl)ccc1NC(=O)CCCC(=O)C(C(=O)c1ccccc1)c1ccccc1 (stereo not drawn) |  | > 100 |  |  |  | > 100 |  | > 100 |  | > 100 |  |  |  | > 100 |  |  |  | > 100 |  |  |
| C[C@@H](c1ccccc1)N(CC#N)C1CCC[C@H]1O (stereo partly drawn) |  | > 100 |  | > 100 |  | > 100 |  | > 100 |  | > 100 |  |  |  | > 100 |  | > 100 |  | > 100 |  |  |
| O=C(O)c1oc2cccc3c2c1CCC3 |  | > 100 |  | > 100 |  | > 100 |  | > 100 |  | > 100 |  |  |  | > 100 |  | > 100 |  | > 100 |  | > 100 |
| O=C1C2=C(c3ccccc31)C(c1ccc(Cl)cc1)NC(=S)N2 (stereo not drawn) |  | 40.5 |  | 38.4 |  | 29.9 |  | 70.9 |  | > 100 |  |  |  | > 100 |  |  |  | 79.4 |  |  |
